This is an account of results in US20180057507A1, “INHIBITORS OF DUAL LEUCINE ZIPPER (DLK) KINASE FOR THE TREATMENT OF DISEASE” (Board of Regents, The University of Texas System, priority 2016, published 2018).

For the experiment, the target named is T1, human DLK (Homo sapiens, UniProt Q12852).
T1 sequence (Q12852 1-859): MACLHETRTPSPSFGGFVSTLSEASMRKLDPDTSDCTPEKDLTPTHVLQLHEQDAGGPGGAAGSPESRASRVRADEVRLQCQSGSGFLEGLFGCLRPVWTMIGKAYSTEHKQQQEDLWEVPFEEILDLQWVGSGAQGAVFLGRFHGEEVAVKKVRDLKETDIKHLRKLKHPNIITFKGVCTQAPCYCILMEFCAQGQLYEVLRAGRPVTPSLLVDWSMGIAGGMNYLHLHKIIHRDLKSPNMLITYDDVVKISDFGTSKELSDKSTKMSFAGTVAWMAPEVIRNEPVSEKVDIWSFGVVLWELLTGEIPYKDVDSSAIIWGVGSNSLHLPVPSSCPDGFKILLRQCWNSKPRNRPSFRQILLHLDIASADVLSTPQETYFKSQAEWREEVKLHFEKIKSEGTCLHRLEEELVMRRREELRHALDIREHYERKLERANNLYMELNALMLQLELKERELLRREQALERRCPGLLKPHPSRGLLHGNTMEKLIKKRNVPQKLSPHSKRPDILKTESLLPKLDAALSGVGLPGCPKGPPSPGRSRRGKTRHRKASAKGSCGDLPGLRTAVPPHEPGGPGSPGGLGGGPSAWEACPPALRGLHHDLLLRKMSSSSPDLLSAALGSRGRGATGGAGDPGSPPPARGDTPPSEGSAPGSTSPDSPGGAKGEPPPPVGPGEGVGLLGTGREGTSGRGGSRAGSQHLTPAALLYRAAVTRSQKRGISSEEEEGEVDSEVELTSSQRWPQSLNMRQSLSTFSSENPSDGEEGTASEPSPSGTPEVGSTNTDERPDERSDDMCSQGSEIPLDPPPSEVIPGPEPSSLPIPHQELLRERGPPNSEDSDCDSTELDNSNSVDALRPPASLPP
Description: DLK Kd Determinations (KINOMEscan KdELECT, DiscoveRx). More on the design: full length of human DLK (amino acids 1-859); host or cells: transiently transfected HEK293 cells; unpurified extract. To be noted: fusion protein of full length human DLK (amino acids 1-859) and NFkB DNA binding domain; qPCR readout; duplicate. The method, then:
The DLK dissociation constants (Kd) have been determined in the KINOMEscan KdELECT Service at DiscoveRx.
A fusion protein of full length of human DLK (amino acids 1-859) and the DNA binding domain of NFkB was expressed in transiently transfected HEK293 cells. From these HEK 293 cells, extracts were prepared in M-PER extraction buffer (Pierce) in the presence of Protease Inhibitor Cocktail Complete (Roche) and Phosphatase Inhibitor Cocktail Set II (Merck) per manufacturers' instructions. The DLK fusion protein was labeled with a chimeric double-stranded DNA tag containing the NFkB binding site (5′-GGGAATTCCC-3′) fused to an amplicon for qPCR readout, which was added directly to the expression extract (the final concentration of DNA-tag in the binding reaction is 0.1 nM).
Streptavidin-coated magnetic beads (Dynal M280) were treated with a biotinylated small molecule ligand for 30 minutes at room temperature to generate affinity resins the binding assays. The liganded beads were blocked with excess biotin and washed with blocking buffer (SeaBlock (Pierce), 1% BSA, 0.05% Tween 20, 1 mM DTT) to remove unbound ligand and to reduce nonspecific binding.
Extracts were used directly in binding assays without any enzyme purification steps at a ≧10,000-fold overall stock dilution (final DNA-tagged enzyme concentration <0.1 nM). Extracts were loaded with DNA-tag and diluted into the binding reaction in a two step process. First extracts were diluted 1:100 in 1× binding buffer (PBS/0.05% Tween 20/10 mM DTT/0.1% BSA/2 μg/ml sonicated salmon sperm DNA) containing 10 nM DNA-tag. This dilution was allowed to equilibrate at room temperature for 15 minutes and then subsequently diluted 1:100 in 1× binding buffer. Test compounds were prepared as 111× stocks in 100% DMSO. Kds were determined using an 11-point 3-fold compound dilution series with three DMSO control points. All compounds for Kd measurements are distributed by acoustic transfer (non-contact dispensing) in 100% DMSO. The compounds were then diluted directly into the assays such that the final concentration of DMSO was 0.9%. All reactions performed in polypropylene 384-well plates. Each was a final volume of 0.02 mL. Assays were incubated with shaking for 1 hour at room temperature. Then the beads were pelleted and washed with wash buffer (1×PBS, 0.05% Tween 20) to remove displaced kinase and test compound. The washed based were re-suspended in elution buffer (1×PBS, 0.05% Tween 20, 0.5 μM non-biotinylated affinity ligand) and incubated at room temperature with shaking for 30 minutes. The kinase concentration in the eluates was measured by qPCR. qPCR reactions were assembled by adding 2.5 μL of kinase eluate to 7.5 μL of qPCR master mix containing 0.15 μM amplicon primers and 0.15 μM amplicon probe. The qPCR protocol consisted of a 10 minute hot start at 95° C., followed by 35 cycles of 95° C. for 15 seconds, 60° C. for 1 minute.
Test compounds were prepared as 111× stocks in 100% DMSO. Kds were determined using an 11-point 3-fold compound dilution series with three DMSO control points. All compounds for Kd measurements are distributed by acoustic transfer (non-contact dispensing) in 100% DMSO. The compounds were then diluted directly into the assays such that the final concentration of DMSO was 0.9%. The Kds were determined using a compound top concentration of 30,000 nM. Kd measurements were performed in duplicate.
Binding constants (Kds) were calculated with a standard dose-response curve using the Hill equation: […]
The Hill Slope was set to −1. Curves were fitted using a non-linear least square fit with the Levenberg-Marquardt algorithm (Levenberg, K., A method for the solution of certain non-linear problems in least squares, Q. Appl. Math. 2, 164-168 (1944)). See also Fabian, M. A. et al. A small molecule-kinase interaction map for clinical kinase inhibitors. Nat. Biotechnol. […]

As usually defined, the Kd is the constant that tells how readily two partners part at equilibrium. Low values mean tighter binding, high ones weaker binding. `Nc1ncc(-c2cn([C@H]3[C@@H]4CNC[C@@H]43)c(CC3CC3)n2)cc1C(F)(F)F` [Example 59, 5-(1-((1R,5S,6s)-3-azabicyclo[3.1.0]hexan-6-yl)-2-(cyclopropylmethyl)-1H-imidazol-4-yl)-3-(trifluoromethyl)pyridin-2-amine] displayed a Kd of 50 nM.
Consider `CC(C)c1nc(-c2cnc(N)c(OC(F)F)c2)cn1[C@H]1[C@@H]2CN(C3CCOCC3)C[C@@H]21` [Example 60, 3-(difluoromethoxy)-5-(2-isopropyl-1-((1R,5S,6s)-3-(tetrahydro-2H-pyran-4-yl)-3-azabicyclo[3.1.0]hexan-6-yl)-1H-imidazol-4-yl)pyridin-2-amine], for which the Kd worked out at 180 nM.
With `Nc1ncc(-c2cn([C@H]3[C@@H]4CN(CC(F)F)C[C@@H]43)c(CC3CC3)n2)cc1C(F)(F)F` [Example 61, 5-(2-(cyclopropylmethyl)-1-((1R,5S,6s)-3-(2,2-difluoroethyl)-3-azabicyclo[3.1.0]hexan-6-yl)-1H-imidazol-4-yl)-3-(trifluoromethyl)pyridin-2-amine] the figure was 140 nM.
As for `Nc1ncc(-c2cn([C@H]3[C@@H]4CN(C5COC5)C[C@@H]43)c(C3CCCC3)n2)cc1C(F)(F)F` [Example 62, 5-(2-cyclopentyl-1-((1R,5S,6s)-3-(oxetan-3-yl)-3-azabicyclo[3.1.0]hexan-6-yl)-1H-imidazol-4-yl)-3-(trifluoromethyl)pyridin-2-amine], the Kd was found to be 85 nM.
`Nc1ncc(-c2cn([C@H]3[C@@H]4CN(C5COC5)C[C@@H]43)c(C3CCCC3)n2)cc1OC(F)(F)F` [Example 63, 5-(2-cyclopentyl-1-((1R,5S,6s)-3-(oxetan-3-yl)-3-azabicyclo[3.1.0]hexan-6-yl)-1H-imidazol-4-yl)-3-(trifluoromethoxy)pyridin-2-amine] returned a Kd of 140 nM.
With `Nc1ncc(-c2cn([C@H]3[C@@H]4CN(C5COC5)C[C@@H]43)c(C3CCCC3)n2)cc1OC(F)F` [Example 64, 5-(2-cyclopentyl-1-((1R,5S,6s)-3-(oxetan-3-yl)-3-azabicyclo[3.1.0]hexan-6-yl)-1H-imidazol-4-yl)-3-(difluoromethoxy)pyridin-2-amine] the figure was 120 nM.
In turn, `Nc1ncc(-c2cn([C@H]3[C@@H]4CN(CC(F)F)C[C@@H]43)c(C3CC3)n2)cc1OC(F)(F)F` [Example 67, 5-(2-cyclopropyl-1-((1R,5S,6s)-3-(2,2-difluoroethyl)-3-azabicyclo[3.1.0]hexan-6-yl)-1H-imidazol-4-yl)-3-(trifluoromethoxy)pyridin-2-amine] had a Kd of 130 nM.
In turn, `Nc1ncc(-c2cn([C@H]3[C@@H]4CN(CC(F)(F)F)C[C@@H]43)c(C3CC3)n2)cc1OC(F)(F)F` [Example 70, 5-(2-cyclopropyl-1-((1R,5S,6s)-3-(2,2,2-trifluoroethyl)-3-azabicyclo[3.1.0]hexan-6-yl)-1H-imidazol-4-yl)-3-(trifluoromethoxy)pyridin-2-amine] registered a Kd of 510 nM.
For `Nc1ncc(-c2cn([C@H]3[C@@H]4CNC[C@@H]43)c(C3CC3)n2)cc1C(F)(F)F` [Example 71, 5-(1-((1R,5S,6s)-3-azabicyclo[3.1.0]hexan-6-yl)-2-cyclopropyl-1H-imidazol-4-yl)-3-(trifluoromethyl)pyridin-2-amine], binding was characterised by a dissociation constant (Kd) of 87 nM.
The molecule `Nc1ncc(-c2cn([C@H]3[C@@H]4CN(CC(F)F)C[C@@H]43)c(C3CC3)n2)cc1C(F)(F)F` [Example 75, 5-(2-cyclopropyl-1-((1R,5S,6s)-3-(2,2-difluoroethyl)-3-azabicyclo[3.1.0]hexan-6-yl)-1H-imidazol-4-yl)-3-(trifluoromethyl)pyridin-2-amine] registered a Kd of 56 nM.
`Nc1ncc(-c2cn([C@H]3[C@@H]4CN(CC(F)(F)F)C[C@@H]43)c(CC3CC3)n2)cc1C(F)(F)F` [Example 79, 5-(2-(cyclopropylmethyl)-1-((1R,5S,6s)-3-(2,2,2-trifluoroethyl)-3-azabicyclo[3.1.0]hexan-6-yl)-1H-imidazol-4-yl)-3-(trifluoromethyl)pyridin-2-amine] displayed a Kd of 180 nM.
Consider `CC(=O)N1C[C@@H]2[C@H](C1)[C@H]2n1cc(-c2cnc(N)c(C(F)(F)F)c2)nc1CC(F)(F)F` [Example 82, 1-((1R,5S,6s)-6-(4-(6-amino-5-(trifluoromethyl)pyridin-3-yl)-2-(2,2,2-trifluoroethyl)-1H-imidazol-1-yl)-3-azabicyclo[3.1.0]hexan-3-yl)ethan-1-one], for which the Kd came to 97 nM.
The result for `Nc1ncc(-c2cn([C@H]3[C@@H]4CNC[C@@H]43)c(CC3CC3)n2)cc1OC(F)F` [Example 86, 5-(1-((1R,5S,6s)-3-azabicyclo[3.1.0]hexan-6-yl)-2-(cyclopropylmethyl)-1H-imidazol-4-yl)-3-(difluoromethoxy)pyridin-2-amine] reads 110 nM; that for `Nc1ncc(-c2cn([C@H]3[C@@H]4CN(C5COC5)C[C@@H]43)c(CC3CC3)n2)cc1OC(F)F` [Example 87, 5-(2-(cyclopropylmethyl)-1-((1R,5S,6s)-3-(oxetan-3-yl)-3-azabicyclo[3.1.0]hexan-6-yl)-1H-imidazol-4-yl)-3-(difluoromethoxy)pyridin-2-amine], 110 nM.
Turning to `Nc1ncc(-c2cn([C@H]3[C@@H]4CN(CC(F)F)C[C@@H]43)c(CC3CC3)n2)cc1OC(F)F` [Example 89, 5-(2-(cyclopropylmethyl)-1-((1R,5S,6s)-3-(2,2-difluoroethyl)-3-azabicyclo[3.1.0]hexan-6-yl)-1H-imidazol-4-yl)-3-(difluoromethoxy)pyridin-2-amine], the affinity, expressed as Kd, was 290 nM.
As for `CC(=O)N1C[C@@H]2[C@H](C1)[C@H]2n1cc(-c2cnc(N)c(OC(F)(F)F)c2)nc1CC1CC1` [Example 91, 1-((1R,5S,6s)-6-(4-(6-amino-5-(trifluoromethoxy)pyridin-3-yl)-2-(cyclopropylmethyl)-1H-imidazol-1-yl)-3-azabicyclo[3.1.0]hexan-3-yl)ethan-1-one], the Kd worked out at 77 nM.
Turning to `Nc1ncc(-c2cn([C@H]3[C@@H]4CN(CC(F)(F)F)C[C@@H]43)c(C3CC3)n2)cc1C(F)(F)F` [Example 93, 5-(2-cyclopropyl-1-((1R,5S,6s)-3-(2,2,2-trifluoroethyl)-3-azabicyclo[3.1.0]hexan-6-yl)-1H-imidazol-4-yl)-3-(trifluoromethyl)pyridin-2-amine], the affinity, expressed as Kd, was 270 nM.
